Results published in patent US5977102A, “Pyrimido [5, 4-d] pyrimidines, pharmaceuticals containing these compounds, their use and processes for their preparation” (Dr. Karl Thomae GmbH, priority 1996, dated 1999).

Experiments:
Assay type in all cases: cell-based
[1] = target: T1, human EGF-R (Homo sapiens, UniProt P00533); test: Inhibition of EGF-dependent proliferation of F/L-HERc cells; conditions: EGF (20 ng/ml), 48 hours
T1 construct: expressed in transfected cells; host or cells: F/L-HERc: murine IL-3-dependent FDC-P1 cells infected with recombinant retrovirus (vector LXSN, packaging line GP+E86) carrying human EGF-R cDNA
T1 sequence (P00533 25-1210): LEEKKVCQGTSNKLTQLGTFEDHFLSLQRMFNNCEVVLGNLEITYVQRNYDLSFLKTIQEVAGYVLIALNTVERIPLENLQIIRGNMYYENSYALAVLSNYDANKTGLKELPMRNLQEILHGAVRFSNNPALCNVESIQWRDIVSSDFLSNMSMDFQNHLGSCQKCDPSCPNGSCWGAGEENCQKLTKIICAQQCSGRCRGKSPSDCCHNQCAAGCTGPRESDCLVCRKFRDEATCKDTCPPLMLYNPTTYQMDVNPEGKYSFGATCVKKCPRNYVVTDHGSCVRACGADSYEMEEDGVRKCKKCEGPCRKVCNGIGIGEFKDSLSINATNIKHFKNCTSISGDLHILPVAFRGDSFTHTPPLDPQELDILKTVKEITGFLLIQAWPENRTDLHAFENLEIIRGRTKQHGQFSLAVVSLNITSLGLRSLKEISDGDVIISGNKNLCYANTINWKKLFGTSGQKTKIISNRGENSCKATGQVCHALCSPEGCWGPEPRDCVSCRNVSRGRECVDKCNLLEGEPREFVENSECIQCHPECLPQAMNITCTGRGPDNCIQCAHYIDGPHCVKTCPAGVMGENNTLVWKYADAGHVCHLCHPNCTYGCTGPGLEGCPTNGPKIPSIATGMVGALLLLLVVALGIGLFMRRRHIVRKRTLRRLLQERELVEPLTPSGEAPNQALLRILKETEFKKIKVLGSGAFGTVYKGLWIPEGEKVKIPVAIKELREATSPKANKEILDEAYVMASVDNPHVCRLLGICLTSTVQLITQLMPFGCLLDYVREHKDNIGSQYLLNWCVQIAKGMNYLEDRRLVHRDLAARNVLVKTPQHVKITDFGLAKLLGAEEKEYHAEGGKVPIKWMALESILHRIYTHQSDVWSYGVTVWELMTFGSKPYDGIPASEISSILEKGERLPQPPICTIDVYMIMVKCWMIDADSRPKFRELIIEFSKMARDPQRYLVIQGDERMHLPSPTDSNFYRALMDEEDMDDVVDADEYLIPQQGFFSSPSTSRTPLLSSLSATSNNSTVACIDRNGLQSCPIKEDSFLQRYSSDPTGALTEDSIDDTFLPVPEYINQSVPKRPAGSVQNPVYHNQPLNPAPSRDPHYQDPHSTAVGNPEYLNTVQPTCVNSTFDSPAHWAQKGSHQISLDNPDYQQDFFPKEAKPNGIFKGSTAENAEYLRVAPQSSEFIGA
From the text: (§1) In this case, an interleukin-3 (IL-3)-dependent cell line of murine origin was used and was genetically modified in such a way that it expresses functional human EGF-R. Proliferation of these cells, which are called F/L-HERc, can therefore be stimulated either by murine IL-3 or by EGF (see von Ruden, T. et al. in EMBO J. 7, 2749-2756 (1988) and Pierce, J. H. et al. in Science 239, 628-631 (1988)).
(§2) The starting material for the F/L-HERc cells was the cell line FDC-P1,whose preparation has been described by Dexter, T. M. et al. in J. Exp. Med. 152, 1036-1047 (1980). However, it is also possible as an alternative to use other growth factor-dependent cells (see, for example, Pierce, J. H. et al. in Science 239, 628-631 (1988), Shibuya, H. et al. in Cell 70, 57-67 (1992) and Alexander, W. S. et al. in EMBO J. 10, 3683-3691 (1991)). Recombinant retroviruses as described in von Ruden, T. et al., EMBO J. 7, 2749-2756 (1988) were used for expression of the human EGF-R cDNA (see Ullrich, A. et al. in Nature 309, 418-425 (1984)) with the difference that the retroviral vector LXSN (see Miller, A. D. et al. in BioTechniques 7, 980-990 (1989)) was employed for expression of the EGF-R cDNA, and the line GP+E86 (see Markowitz, D. et al. in J. Virol. 62, 1120-1124 (1988)) was used as packaging cell.
(§3) The test was carried out as follows:
(§4) F/L-HERc cells were cultivated in RPMI/1640 medium (BioWhittaker), supplemented with 10% fetal calf serum (FCS, Boehringer Mannheim), 2 mM glutamine (BioWhittaker), standard antibiotics and 20 ng/ml human EGF (Promega), at 37° C. and 5% CO2. To investigate the inhibitory activity of the compounds according to the invention, 1.5×10^4 cells were cultivated in the above medium (200 μl) per well in triplicates in 96-well plates, stimulating proliferation of the cells either with EGF (20 ng/ml) or with murine IL-3. The source used for IL-3 was culture supernatants from the cell line X63/0 mIL-3 (see Karasuyama, H. et al. in Eur. J. Immunol. 18, 97-104 (1988)). The compounds according to the invention were dissolved in 100% dimethyl sulphoxide (DMSO) and added in various dilutions to the cultures, with the maximum DMSO concentration being 1%. The cultures were incubated at 37° C. for 48 hours.
(§5) To determine the inhibitory activity of the compounds according to the invention, the relative cell count was measured in O.D. units using the Cell Titre 96™ AQueous Non-Radioactive Cell Proliferation Assay (Promega). The relative cell count was calculated as a per cent of the control (F/L-HERc cells without inhibitor), and the concentration of active substance which inhibits the proliferation of the cells by 50% (IC50) was inferred.

[2] = system: F/L-HERc cells; test: Inhibition of IL-3-dependent proliferation of F/L-HERc cells; conditions: Mus musculus, murine IL-3, 48 hours
From the text: as §1, §2, §3, §4, §5

[3] = system: human tumour cell line KB; test: Inhibition of EGF/TGF-alpha-stimulated KB cell proliferation ([3H]-thymidine incorporation); conditions: KB cells, TGF-alpha [10 ng/ml] or EGF [20 ng/ml], 60 hours, then [3H]-thymidine 16-18 h
Protocol: To do this, the cells were washed twice and 1500 cells per well were plated out in a 96-well plate in 200 μl of IMDM (BioWhittaker) without serum in the presence of 50 μM mercaptoethanol, standard antibiotics, TGF-alpha [10 ng/ml] or EGF [20 ng/ml] and of various concentrations of the substances according to the invention (triplicates, maximum DMSO concentration 1%, see proliferation test with F/L-HERc cells). After 60 hours, [^3 H]-thymidine (0.1 μCi in 10 μl) was added for about 16-18 h.

Row | IC50 [1] [nM] | IC50 [3] [nM] | Structure (SMILES) | IC50 [2] [nM]
1 | 1 | – | Clc1cccc(CNc2ncnc3cnc(N4CCOCC4)nc23)c1 [1(15), 4-(3-chlorobenzylamino)-6-morpholinopyrimido[5,4-d]-pyrimidine] | > 10000
2 | 2300 | – | c1cc2cc(Nc3ncnc4cnc(N5CCOCC5)nc34)ccc2cn1 [1(14), 4-(6-isoquinolylamino)-6-morpholinopyrimido[5,4-d]-pyrimidine] | 2200
3 | 98 | – | NCc1ccc(CNc2ncc3ncnc(Nc4ccc(F)c(Cl)c4)c3n2)cc1 [2(12), 4-[(3-chloro-4-fluorophenyl)amino]-6-[4-(aminomethyl)benzylamino]pyrimido[5,4-d]pyrimidine] | –
4 | 225 | – | Fc1ccc(Nc2ncnc3cnc(N4CCC(c5ccncc5)CC4)nc23)cc1Cl [2(9), 4-[(3-chloro-4-fluorophenyl)amino]-6-[4-(4-pyridyl)-1-piperidinyl]pyrimido[5,4-d]pyrimidine] | > 20000
5 | 200 | – | c1ccc2c(c1)CCC(Nc1ncnc3cnc(NC4CC4)nc13)C2 (stereo not shown) [1(16), 4-(1,2,3,4-tetrahydro-2-naphthylamino)-6-cyclopropylaminopyrimido[5,4-d]pyrimidine] | –
6 | 21 | – | c1nc(Nc2ccc3[nH]ccc3c2)c2nc(N3CCOCC3)ncc2n1 [Example 1, 4-(5-Indolylamino)-6-morpholinopyrimido[5,4-d]pyrimidine] | 10000
7 | 190 | – | NCc1cccc(CNc2ncc3ncnc(Nc4ccc(F)c(Cl)c4)c3n2)c1 [2(11), 4-[(3-chloro-4-fluorophenyl)amino]-6-[3-(aminomethyl)benzylamino]pyrimido[5,4-d]pyrimidine] | –
8 | 50 | 400 | Fc1ccc(Nc2ncnc3cnc(NCc4ccncc4)nc23)cc1Cl [Example 2, 4-[(3-Chloro-4-fluorophenyl)amino]-6-(4-picolylamino)pyrimido[5,4-d]pyrimidine] | > 1000
9 | 1000 | – | c1cnc2ccc(Nc3ncnc4cnc(N5CCOCC5)nc34)cc2c1 [1(2), 4-(6-quinolylamino)-6-morpholinopyrimido[5,4-d]pyrimidine] | –
10 | 275 | – | Fc1ccc(Nc2ncnc3cnc(N4CCN(c5ccccn5)CC4)nc23)cc1Cl [2(10), 4-[(3-chloro-4-fluorophenyl)amino]-6-[4-(2-pyridyl)-1-piperazinyl]pyrimido[5,4-d]pyrimidine] | > 20000
11 | 1000 | – | c1cc(Nc2ncnc3cnc(N4CCOCC4)nc23)c2nsnc2c1 [1(5), 4-[4-(2,1,3-benzothiadiazolyl)amino]-6-morpholinopyrimido[5,4-d]pyrimidine] | –
12 | 15 | – | O=C(N1CCC(Nc2ncc3ncnc(Nc4ccc(F)c(Cl)c4)c3n2)CC1)C(F)(F)F [2(8), 4-[(3-chloro-4-fluorophenyl)amino]-6-[1-trifluoroacetyl-4-piperidinylamino]pyrimido[5,4-d]pyrimidine] | > 20000
13 | 10000 | – | c1cc(Nc2ncnc3cnc(N4CCOCC4)nc23)ccn1 [1(13), 4-(4-pyridylamino)-6-morpholinopyrimido[5,4-d]pyrimidine] | 9000
14 | 800 | – | c1cnc2c(Nc3ncnc4cnc(N5CCOCC5)nc34)cccc2c1 [1(3), 4-(8-quinolylamino)-6-morpholinopyrimido[5,4-d]pyrimidine] | –
15 | 400 | – | Cc1cccc(Nc2ncnc3cnc(-n4ccnc4)nc23)c1 [2(2), 4-[(3-methylphenyl)amino]-6-(1-imidazolyl)pyrimido-[5,4-d]pyrimidine] | –
16 | 200 | – | O=C(CN1CCN(c2ncc3ncnc(Nc4ccc(F)c(Cl)c4)c3n2)CC1)N1CCCC1 [2(4), 4-[(3-chloro-4-fluorophenyl)amino]-6-[4-(1-pyrrolidinylcarbonylmethyl)-1-piperazinyl]pyrimido[5,4-d]pyrimidine] | > 10000
17 | 125 | – | c1nc(Nc2ccc3[nH]ncc3c2)c2nc(N3CCOCC3)ncc2n1 [1(4), 4-(5-indazolylamino)-6-morpholinopyrimido[5,4-d]pyrimidine] | –
18 | 2000 | – | c1cc(Nc2ncnc3cnc(N4CCOCC4)nc23)c2cccnc2c1 [1(1), 4-(5-quinolylamino)-6-morpholinopyrimido[5,4-d]pyrimidine] | 10000
19 | 40 | – | O=C(CN1CCN(c2ncc3ncnc(Nc4ccc(F)c(Cl)c4)c3n2)CC1)N1CCOCC1 [2(5), 4-[(3-chloro-4-fluorophenyl)amino]-6-[4-(morpholinocarbonylmethyl)-1-piperazinyl]pyrimido[5,4-d]pyrimidine] | > 10000
20 | 175 | – | Fc1ccc(Nc2ncnc3cnc(NCc4ccccn4)nc23)cc1Cl [2(7), 4-[(3-chloro-4-fluorophenyl)amino]-6-(2-picolylamino)pyrimido[5,4-d]pyrimidine] | > 1000
21 | 138 | – | CN1CCC2(CC1)CN(c1ncc3ncnc(Nc4ccc(F)c(Cl)c4)c3n1)C2 [2(3), 4-[(3-chloro-4-fluorophenyl)amino]-6-(7-methyl-2,7-diazaspiro[3.5]-2-nonyl)pyrimido[5,4-d]pyrimidine] | > 10000
22 | 3 | 100 | Fc1ccc(Nc2ncnc3cnc(NN4CCOCC4)nc23)cc1Cl [Example 2(6), 4-[(3-chloro-4-fluorophenyl)amino]-6-[(4-morpholinyl)amino]pyrimido[5,4-d]pyrimidine] | > 10000
23 | 6000 | – | c1cncc(Nc2ncnc3cnc(N4CCOCC4)nc23)c1 [1(9), 4-(3-pyridylamino)-6-morpholinopyrimido[5,4-d]pyrimidine] | –
24 | 1 | – | O[C@H]1CC[C@H](Nc2ncc3ncnc(Nc4ccc5[nH]ccc5c4)c3n2)CC1 [2(1), 4-(5-indolylamino)-6-[trans-(4-hydroxycyclohexyl)amino]pyrimido[5,4-d]pyrimidine] | > 10000
25 | > 10000 | – | O[C@H]1CC[C@H](Nc2ncc3ncnc(Nc4ccc5c(c4)Cc4ccccc4-5)c3n2)CC1 [2(15), 4-[2-fluorenylamino]-6-(trans-4-hydroxycyclohexylamino)pyrimido[5,4-d]pyrimidine] | –

Row | Structure (SMILES) | IC50 [1] [nM] | IC50 [3] [nM] | IC50 [2] [nM]
26 | CN1[C@@H]2CC[C@H]1C[C@@H](Nc1ncc3ncnc(Nc4ccc(F)c(Cl)c4)c3n1)C2 [2(18), 4-[(3-chloro-4-fluorophenyl)amino]-6-(endo-tropinylamino)pyrimido[5,4-d]pyrimidine] | 138 | – | > 10000
27 | CN1[C@@H]2CC[C@H]1C[C@H](Nc1ncc3ncnc(Nc4ccc(F)c(Cl)c4)c3n1)C2 [2(19), 4-[(3-chloro-4-fluorophenyl)amino]-6-(exo-tropinylamino)pyrimido[5,4-d]pyrimidine] | 28 | – | > 10000
